Literature values in patent US11612885B2, “Methods, compositions and kits useful for pH gradient cation exchange chromatography” (WATERS TECHNOLOGIES CORPORATION, priority 2018, dated 2023).

Conditions: background statement; exposure

For `C1CNCCN1` [Piperazine, 1,4-Diazinane], the known toxicity is listed as “acute respiratory and skin irritation as well as organ damage with prolonged exposure”.

Conditions: buffer salts used in the Examples

Going from `NC(=O)CNCCS(=O)(=O)O` [ACES, 2-(carbamoylmethylamino)ethanesulfonic acid] to `O=S(=O)(O)CCCNC1CCCCC1` [CAPS, 3-(Cyclohexylamino)-1-propanesulfonic acid], the pKa1 rises from 6.9 to 10.4.

Compared with `CC(C)(N)CO` [AMP, 2-amino-2-methyl-1-propanol], `CC(N)(CO)CO` [AMPD, 2-amino-2-methyl-1,3-propanediol] is lower in pKa1: 9.7 for the first, 8.8 for the second.

Compared with `OCC(CO)(CO)NCCCNC(CO)(CO)CO` [BIS-TRIS Propane, 1,3-bis(tris(hydroxymethyl)methylamino)propane], `O=C(O)CCC(=O)O` [Succinic Acid, 1,4-butandioic acid] is lower in pKa1: 6.8 for the first, 4.1 for the second.

Compared with `NCC(=O)O` [Gly, Aminoethanoic acid], `NCC(=O)NCC(=O)O` [Gly-Gly, 2-[(2-Aminoacetyl)amino] acetic acid] is higher in pKa1: 2.4 for the first, 3.1 for the second.

For `c1c[nH]cn1` [Imidazole, 1,3-diazacyclopenta-2,4-diene], the pKa1 is given as 7.0.

First: OCC(CO)(CO)NCCCNC(CO)(CO)CO [BIS-TRIS Propane, 1,3-bis(tris(hydroxymethyl)methylamino)propane]
Second: O=C(O)CCC(=O)O [Succinic Acid, 1,4-butandioic acid]
The pKa2 of the first is higher: 9.1 for the first, 5.5 for the second.

`NCC(=O)O` [Gly, Aminoethanoic acid] and `NCC(=O)NCC(=O)O` [Gly-Gly, 2-[(2-Aminoacetyl)amino] acetic acid] are the same in pKa2: 8.1 for the first, 8.1 for the second.
